Reference: PMC13185819, “De Novo Multi‐Mechanism Antimicrobial Peptide Design via Multimodal Deep Learning” (Advanced Science, 2026)
Converted amounts (≈) assume the structure as drawn. Residues, ends and D or L forms follow the SMILES beside them.

Assays:
Format in all cases: cell-based
E. faecium 1042 = tested on: E. faecium 1042
Method: (§1) Standard strains included S. aureus ATCC33592, S. aureus CICC25138, and Salmonella enterica ATCC14028, which were purchased from the China Center of Industrial Culture Collection (CICC). Standard strains including E.coli CMCC44102, Salmonella enterica CMCC50071, and S. aureus CMCC26003 were purchased from the National Center for Medical Culture Collections (CMCC). […] All experiments using the above strains were carried out in a BSL‐2 laboratory. The clinical laboratory of Qilu Hospital detected bacterial resistance to various antibiotics. All strains were streaked on Nutrient Broth (NB) agar medium and incubated overnight at 37°C.
(§2) The antimicrobial activity of the peptides was examined in sterile 96‐well plates using the broth microdilution according to the CLSI standard. The colonies were suspended in saline solution, the turbidity was adjusted to McFarland 0.5 to reach a bacterial concentration of 10^8 CFU/mL, and again diluted 100 times for the inhibition test. Then, 50 µL of bacterial suspension at 1 × 10^6 CFU/mL was incubated with the same volume of different concentrations of peptide solution [serial twofold dilutions in Mueller–Hinton Broth (Hopebio)]. […] All experiments were performed with three independent replicates.

E. faecium 21 = tested on: E. faecium 21
Method: as §1, §2

E.coli 110 = tested on: E.coli 110
Method: as §1, §2

E.coli 208 = tested on: E.coli 208
Method: as §1, §2

K. pneumoniae 7713 = tested on: K. pneumoniae 7713
Method: as §1, §2

P. aeruginosa 112 = tested on: P. aeruginosa 112
Method: as §1, §2

P. aeruginosa 116 = tested on: P. aeruginosa 116
Method: as §1, §2

P. aeruginosa 119 = tested on: P. aeruginosa 119
Method: as §1, §2

S. aureus 103 = tested on: S. aureus 103
Method: as §1, §2

S. aureus 129 = tested on: S. aureus 129
Method: as §1, §2

S. aureus ATCC33592 = tested on: S. aureus ATCC33592
Method: as §1, §2

S. aureus CICC25138 = tested on: S. aureus CICC25138
Method: as §1, §2

| Structure (SMILES) | MIC (μg/mL) E. faecium 1042 (E. faecium 1042) [µg/mL] | MIC (μg/mL) E. faecium 21 (E. faecium 21) [µg/mL] | MIC (μg/mL) E.coli 110 (E.coli 110) [µg/mL] | MIC (μg/mL) E.coli 208 (E.coli 208) [µg/mL] | MIC (μg/mL) K. pneumoniae 7713 (K. pneumoniae 7713) [µg/mL] | MIC (μg/mL) P. aeruginosa 112 (P. aeruginosa 112) [µg/mL] | MIC (μg/mL) P. aeruginosa 116 (P. aeruginosa 116) [µg/mL] | MIC (μg/mL) P. aeruginosa 119 (P. aeruginosa 119) [µg/mL] | MIC (μg/mL) S. aureus 103 (S. aureus 103) [µg/mL] | MIC (μg/mL) S. aureus 129 (S. aureus 129) [µg/mL] | MIC (μg/mL) S. aureus ATCC33592 (S. aureus ATCC33592) [µg/mL] | MIC (μg/mL) S. aureus CICC25138 (S. aureus CICC25138) [µg/mL] |
| --- | --- | --- | --- | --- | --- | --- | --- | --- | --- | --- | --- | --- |
| CC[C@H](C)[C@H](NC(=O)[C@H](CCCCN)NC(=O)[C@H](Cc1c[nH]c2ccccc12)NC(=O)[C@@H](N)CCCCN)C(=O)N[C@@H](CCCCN)C(=O)N[C@@H](Cc1c[nH]c2ccccc12)C(=O)N1CCC[C@H]1C(=O)N[C@@H](CO)C(=O)N[C@@H](CC(N)=O)C(=O)N[C@@H](Cc1c[nH]c2ccccc12)C(=O)N[C@@H](Cc1ccccc1)C(=O)N[C@H](C(=O)N[C@@H](CCCCN)C(=O)N[C@@H](CC(C)C)C(N)=O)[C@@H](C)O [QLX-3DV-3] (H-KWKIKWPSNWFTKL-NH2) | 8 (≈ 4.3 µM) | 8 (≈ 4.3 µM) | 16 (≈ 8.6 µM) | 8 (≈ 4.3 µM) | 16 (≈ 8.6 µM) | 32 (≈ 17.2 µM) | 16 (≈ 8.6 µM) | 32 (≈ 17.2 µM) | 32 (≈ 17.2 µM) | 64 (≈ 34.4 µM) | 32 (≈ 17.2 µM) | 32 (≈ 17.2 µM) |
| CC[C@H](C)[C@H](NC(=O)[C@H](CCCCN)NC(=O)[C@H](Cc1c[nH]c2ccccc12)NC(=O)[C@@H](N)CCCCN)C(=O)N[C@@H](CCCCN)C(=O)N[C@@H](Cc1c[nH]c2ccccc12)C(=O)N1CCC[C@H]1C(=O)N[C@@H](CO)C(=O)N[C@@H](CCCNC(=N)N)C(=O)N[C@@H](Cc1c[nH]c2ccccc12)C(=O)N[C@@H](Cc1ccccc1)C(=O)N[C@H](C(=O)N[C@@H](CCCCN)C(=O)N[C@@H](CC(C)C)C(N)=O)[C@@H](C)O [QLX-3DV-4] (H-KWKIKWPSRWFTKL-NH2) | 16 (≈ 8.41 µM) | 8 (≈ 4.2 µM) | 32 (≈ 16.8 µM) | 16 (≈ 8.41 µM) | 16 (≈ 8.41 µM) | 32 (≈ 16.8 µM) | 32 (≈ 16.8 µM) | 32 (≈ 16.8 µM) | 16 (≈ 8.41 µM) | 32 (≈ 16.8 µM) | 32 (≈ 16.8 µM) | 16 (≈ 8.41 µM) |
| CC[C@H](C)[C@H](NC(=O)[C@H](CCCCN)NC(=O)[C@H](Cc1c[nH]c2ccccc12)NC(=O)[C@@H](N)CCCCN)C(=O)N[C@@H](CCCCN)C(=O)N[C@@H](CCCNC(=N)N)C(=O)N1CCC[C@H]1C(=O)N[C@H](C(=O)N[C@@H](CCCCN)C(=O)N[C@@H](Cc1c[nH]c2ccccc12)C(=O)N[C@@H](Cc1ccccc1)C(=O)N[C@H](C(=O)N[C@@H](CCSC)C(=O)N[C@@H](CC(C)C)C(N)=O)[C@@H](C)O)C(C)C [QLX-3DV-5] (H-KWKIKRPVKWFTML-NH2) | 32 (≈ 17.2 µM) | 8 (≈ 4.3 µM) | 8 (≈ 4.3 µM) | 8 (≈ 4.3 µM) | 8 (≈ 4.3 µM) | 16 (≈ 8.6 µM) | 128 (≈ 68.8 µM) | 64 (≈ 34.4 µM) | 32 (≈ 17.2 µM) | 128 (≈ 68.8 µM) | 64 (≈ 34.4 µM) | 64 (≈ 34.4 µM) |
| CC[C@H](C)[C@H](NC(=O)[C@H](CCCCN)NC(=O)[C@H](Cc1c[nH]c2ccccc12)NC(=O)[C@@H](N)CCCCN)C(=O)N[C@@H](CCCCN)C(=O)N[C@@H](CCC(N)=O)C(=O)N[C@@H](Cc1c[nH]c2ccccc12)C(=O)N[C@H](C(=O)N[C@@H](CCCNC(=N)N)C(=O)N[C@@H](Cc1c[nH]c2ccccc12)C(=O)N[C@@H](Cc1ccccc1)C(=O)N[C@@H](CCCNC(=N)N)C(=O)N[C@@H](CCCCN)C(=O)N[C@@H](CC(C)C)C(N)=O)C(C)C [QLX-3DV-6] (H-KWKIKQWVRWFRKL-NH2) | 8 (≈ 4 µM) | 8 (≈ 4 µM) | 8 (≈ 4 µM) | 4 (≈ 2 µM) | 16 (≈ 7.99 µM) | 32 (≈ 16 µM) | 16 (≈ 7.99 µM) | 128 (≈ 64 µM) | 16 (≈ 7.99 µM) | 16 (≈ 7.99 µM) | 16 (≈ 7.99 µM) | 16 (≈ 7.99 µM) |
| CC[C@H](C)[C@H](NC(=O)[C@H](CCCCN)NC(=O)[C@H](CCCNC(=N)N)NC(=O)[C@@H](N)CCCCN)C(=O)N[C@@H](CCCCN)C(=O)N[C@@H](Cc1c[nH]c2ccccc12)C(=O)N[C@@H](CCCCN)C(=O)N[C@H](C(=O)N[C@@H](CCCNC(=N)N)C(=O)N[C@@H](Cc1c[nH]c2ccccc12)C(=O)N[C@@H](Cc1ccccc1)C(=O)N[C@H](C(=O)N[C@@H](Cc1ccc(O)cc1)C(=O)N[C@@H](CC(C)C)C(N)=O)[C@@H](C)O)C(C)C [QLX-3DV-7] (H-KRKIKWKVRWFTYL-NH2) | 8 (≈ 4.1 µM) | 8 (≈ 4.1 µM) | 16 (≈ 8.2 µM) | 32 (≈ 16.4 µM) | 16 (≈ 8.2 µM) | 32 (≈ 16.4 µM) | 8 (≈ 4.1 µM) | 64 (≈ 32.8 µM) | 16 (≈ 8.2 µM) | 16 (≈ 8.2 µM) | 16 (≈ 8.2 µM) | 16 (≈ 8.2 µM) |
| CC[C@H](C)[C@H](NC(=O)[C@H](CCCCN)NC(=O)[C@H](CCCNC(=N)N)NC(=O)[C@@H](N)CCCCN)C(=O)N[C@@H](CCCCN)C(=O)N[C@@H](Cc1c[nH]c2ccccc12)C(=O)N[C@@H](Cc1c[nH]c2ccccc12)C(=O)N[C@H](C(=O)N[C@@H](CCCNC(=N)N)C(=O)N[C@@H](Cc1c[nH]c2ccccc12)C(=O)N[C@H](C(=O)N[C@H](C(=O)N[C@@H](CCCCN)C(=O)N[C@@H](CC(C)C)C(N)=O)[C@@H](C)O)[C@@H](C)CC)C(C)C [QLX-3DV-8] (H-KRKIKWWVRWITKL-NH2) | 8 (≈ 4.12 µM) | 4 (≈ 2.06 µM) | – | – | 8 (≈ 4.12 µM) | 16 (≈ 8.25 µM) | 8 (≈ 4.12 µM) | 32 (≈ 16.5 µM) | 8 (≈ 4.12 µM) | 8 (≈ 4.12 µM) | – | 16 (≈ 8.25 µM) |
| CC[C@H](C)[C@H](NC(=O)[C@H](CCCCN)NC(=O)[C@H](Cc1c[nH]c2ccccc12)NC(=O)[C@@H](N)CCCCN)C(=O)N[C@@H](CCCCN)C(=O)N[C@@H](Cc1c[nH]c2ccccc12)C(=O)N[C@@H](CCCNC(=N)N)C(=O)N[C@H](C(=O)N[C@@H](CCCNC(=N)N)C(=O)N[C@@H](Cc1c[nH]c2ccccc12)C(=O)N[C@@H](Cc1ccccc1)C(=O)N[C@@H](CCCCN)C(=O)N[C@@H](CC(C)C)C(=O)N[C@@H](CC(C)C)C(N)=O)C(C)C [QLX-3DV-9] (H-KWKIKWRVRWFKLL-NH2) | 2 (≈ 1.01 µM) | 2 (≈ 1.01 µM) | 8 (≈ 4.03 µM) | 16 (≈ 8.05 µM) | 16 (≈ 8.05 µM) | 16 (≈ 8.05 µM) | 4 (≈ 2.01 µM) | 16 (≈ 8.05 µM) | 8 (≈ 4.03 µM) | 8 (≈ 4.03 µM) | 16 (≈ 8.05 µM) | 8 (≈ 4.03 µM) |
